{"source": "patent US20210278408A1", "about": "“METHODS OF TREATMENT OF CANCER WITH SUBSTITUTED PYRROLE AND PYRAZOLE COMPOUNDS AND DIAGNOSIS OF CANCERS SUSCEPTIBLE TO TREATMENT WITH SUBSTITUTED PYRROLE AND PYRAZOLE COMPOUNDS” (Bantam Pharmaceutical, LLC, priority 2018, published 2021)", "key": {"SU-DHL-10 xenograft": {"test_system": "SU-DHL-10 xenograft", "assay": "Human xenograft model, diffuse large B-cell lymphoma line SU-DHL-10", "format": "in vivo, SCID beige mice", "settings": "once daily oral gavage, p<0.01 for 10 and 30 mpk doses", "method": "FIG. 10 is a set of graphs of in vivo treatment results for Athymic Nude mice engrafted with the DLBCL line SU-DHL-10 (left panel) or the CRC line HCT-116 (right panel). After 14 days, groups of mice (n=10 per group) were randomized by tumor volume and treated with Compound B19 (left panel) or Compound A197 (right panel). All animals dosed p.o. q.d. (orally once per day). Tumor burden was measured over 21 days. Compound B19 efficacy was monitored for 21 days following last dose to determine relapse. All data plotted as the mean±SEM, n=10 mice per group.\nThe positive results of the PK studies led to an evaluation of Compound A197 and Compound B19 in murine xenograft models of human tumors. Compound A197 was tested in a human tumor xenograft model using KRAS mutated colorectal cancer cell line HCT-116. Athymic nude mice (HSD:Athymic Nude-Foxn1 nu, Envigo) were inoculated subcutaneously with 5×10^6 HCT-116 cells in the right rear flank. The animals wethen staged and randomized by tumor size to achieve dose groups of 10 animals each with an average tumor volume of 150 mm^3. Tumor bearing mice were dosed once daily by oral gavage with a vehicle (5% NMP, 15% PEG400, 10% Solutol, and 70% D5W) or with A197 dissolved in vehicle to provide a dose concentration of 10 ml/kg. Compound B19 was tested in a human xenograft model using the human diffuse large B-cell lymphoma line SU-DHL-10 (ATCC). […]"}, "[1]": {"assay": "Pharmacokinetics in CD-1 mice, single oral dose compared to single intravenous dose", "format": "in vivo", "settings": "for bioavailability: CD-1, mouse, po; for Cmax: blood plasma", "method": "Pharmacokinetic Properties of Compound A197 Compound A197 levels in blood plasma of CD-1 mice given a single, oral dose of the agent and compared to a single intravenous dose, were measured to assess basic pharmacokinetic parameters. A197 was dissolved in 1% NMP, 0.3% Tween-80 in 0.5% methylcellulose at a dose volume of 10 ml/kg. Following compound dosing, blood was collected by tail vein bleed at 30 minutes, 1, 2, 4, 8, 12, 24 and 48 hrs following dosing."}, "Cell cycle": {"test_system": "Cell cycle", "assay": "High content imaging screen: cell cycle", "format": "cell-based", "method": "(§1) Mechanism of Action Screens A series of broad high content imaging, transcriptomic, metabolomic, and CRISPR KO screens were performed to link Compound A197 activity to a probable method of action. The outcome of these screens included two notable observations."}, "Cytoskeletal": {"test_system": "Cytoskeletal", "assay": "High content imaging screen: cytoskeletal", "format": "cell-based", "settings": "actin or microtubule localization or structure", "method": "as §1"}, "Oxidative Stress": {"test_system": "Oxidative Stress", "assay": "High content imaging screen: oxidative stress (ROS)", "format": "cell-based", "method": "as §1"}, "Kinase": {"test_system": "Kinase", "assay": "In vitro assays: kinase", "format": "biochemical", "settings": "63 kinase family members including Raf, MEK, ERK, AKT, CDK1-4"}, "Gene Expression": {"test_system": "Gene Expression", "assay": "Transcriptomic screen", "format": "cell-based", "method": "as §1"}, "Metabolites": {"test_system": "Metabolites", "assay": "Metabolomic screen", "format": "cell-based", "settings": "GSH, ATP/AMP ratio, isocitrate and aconitate", "method": "as §1"}, "eIF2α phosphorylation": {"test_system": "eIF2α phosphorylation", "assay": "eIF2α phosphorylation in HCT-116 cells, Western blotting", "format": "cell-based, human", "settings": "5 μM, 30 minutes, 1, 2 or 4 hrs", "method": "FIG. 12 is a set of graphs of Compound A197-induced phosphorylation of eIF2a. HCT-116 cells were treated with 5 μM Compound A197. eIF2α and p-eIF2α levels were determined by Western blotting. All data are mean±SD (n=3). *=p<0.05; #p<0.005.\nThe canonical pathway of ATF4 induction involves eIF2α phosphorylation. To determine the levels of levels of eIF2α and p-eIF2α were determined using Western blotting. HCT-116 cells (1.5×10^5 per well) were cultured in 12 well tissue culture plates and treated with 5 μM Compound A197 dissolved in McCoys complete medium with 10% FBS for 30 minutes, 1,2 or 4 hrs. Following treatment, media was removed, the cells were washed with PBS and then lysed following addition of RIPA lysis buffer. The cell lysate is then clarified by centrifugation at 14,000×g for 10 minutes. The clarified lysate protein levels are determined using BCA methodology. All lysates are diluted with RIPA buffer to give a final concentration of 200 μg/ml. As a control, HCT-116 cells were starved for essential amino acids (EAA), which increases eIF2α phosphorylation via EIF2AAK4 (GCN2). The HCT-116 cells were plated as above but the media was removed and replaced with Earls Balanced salt solution. All subsequent steps for lysate preparation were identical to those described above."}, "[2]": {"test_system": "NHLF, BJAB, SU-DHL-2, and HCT-116 cells", "assay": "Total cellular GSH levels (GSH-Glo), all lines", "format": "cell-based, human", "settings": "tumor lines HCT-116, BJAB", "method": "Total cellular GSH levels are reduced in tumor lines treated with Compound A197 The therapeutic compounds will cause a dose dependent reduction in total cellular glutathione in HCT-116, BJAB, SU-DHL-2, but not in NHLF cells. The maximum reduction of cellular GSH is in the range of 43-69%. The reduction In GSH levels appears independent of apoptosis.\n(§2) NHLF, BJAB, SU-DHL-2, and HCT-116 cells were treated with Compound A197 for 4 hours prior to lysate harvest. Total cellular glutathione (GSH) levels were determined using a luminescent endpoint (GSH-Glo, Promega). Cell proliferation was determined using Cell-Titre Glo following 72 hours of compound treatment. All data shown is mean±SD of three biological replicates."}, "BJAB [3]": {"test_system": "BJAB", "assay": "Total cellular GSH levels (GSH-Glo): BJAB", "format": "cell-based, human", "settings": "4 hrs, mean ± std. dev.", "method": "as §2"}, "BJAB [4]": {"test_system": "BJAB", "assay": "Apoptosis, 72 hr: BJAB", "format": "cell-based, human"}, "HCT-116": {"test_system": "HCT-116", "assay": "Apoptosis, 72 hr: HCT-116", "format": "cell-based, human"}, "[5]": {"settings": "mouse, plasma, 0.5 mg/kg, Intravenous, 0.5 mpk"}}, "note": "“Also recorded” adds a separate entry of the source. Like-named read-outs stand apart in the source and are kept apart here.", "data": [{"smiles": "COC(=O)c1c(-c2cccc(F)c2)c(C)nn1-c1nc(C2=CCC(C(F)(F)F)CC2)c(SC(C)C)s1", "note": "(single isomer, unassigned) [Compound B19, methyl 4-(3-fluorophenyl)-1-(5-(isopropylthio)-4-(4-(trifluoromethyl)cyclohex-1-en-1-yl)thiazol-2-yl)-3-methyl-1H-pyrazole-5-carboxylate]", "values": [{"measurement": "regression in DLBCL tumors", "setting": "SU-DHL-10 xenograft", "value": "dose-dependent and durable regression in DLBCL tumors by day 21"}]}, {"smiles": "Cc1nn(-c2nc(-c3ccc(C(F)(F)F)cc3)c(SC(C)C)s2)c(C(=O)O)c1-c1cccc(F)c1", "note": "[Compound A197, 4-(3-fluorophenyl)-1-(5-(isopropylthio)-4-(4-(trifluoromethyl)phenyl)thiazol-2-yl)-3-methyl-1H-pyrazole-5-carboxylic acid]", "values": [{"measurement": "bioavailability", "setting": "[1]; plasma, 2.5 mg/kg, Oral, 2.5 mpk, read-out: % F", "value": 59.1, "unit": "%"}, {"measurement": "bioavailability", "setting": "[1]; plasma, 2.5 mg/kg, single oral dose compared to single intravenous dose, read-out: Bioavailability", "value": 59, "unit": "%"}, {"measurement": "t1/2", "setting": "[1]; Intravenous, 0.5 mpk", "value": 5.6, "unit": "h"}, {"measurement": "Cmax", "setting": "[1]; mouse, 0.5 mg/kg, Intravenous, 0.5 mpk", "value": 2880, "unit": "ng/mL"}, {"measurement": "Cmax", "setting": "[1]; mouse, 2.5 mg/kg, Oral, 2.5 mpk", "value": 2610, "unit": "ng/mL"}, {"measurement": "AUC(0-inf)", "setting": "[1]; [5]", "value": 14500, "unit": "ng·h/mL"}, {"measurement": "clearance", "setting": "[1]; [5]", "value": 0.58, "unit": "mL/min/kg"}, {"measurement": "Vd", "setting": "[1]; mouse, plasma, 0.5 mg/kg, Intravenous, 0.5 mpk, read-out: Vss", "value": 0.285, "unit": "L/kg"}, {"measurement": "AUC(0-inf)", "setting": "[1]; mouse, plasma, 2.5 mg/kg, Oral, 2.5 mpk", "value": 42900, "unit": "ng·h/mL"}, {"measurement": "Tmax", "setting": "[1]; mouse, plasma, 2.5 mg/kg, single oral dose, read-out: Plasma drug tmax", "value": 6, "unit": "h"}, {"measurement": "half-life", "setting": "[1]; mouse, plasma, iv, 0.5 mg/kg", "value": 5.6, "unit": "h"}, {"measurement": "Outcome: Cell cycle", "setting": "Cell cycle", "value": "G1 arrest associated with TP53 independent CDKN1A"}, {"measurement": "Outcome: Cytoskeletal", "setting": "Cytoskeletal", "value": "No obvious changes in actin or microtubule localization"}, {"measurement": "Outcome: Oxidative Stress", "setting": "Oxidative Stress", "value": "No production of ROS"}, {"measurement": "Outcome: Kinase", "setting": "Kinase", "value": "No activity on 63 kinase family members including Raf,"}, {"measurement": "Outcome: Gene Expression", "setting": "Gene Expression", "value": "induced the ATF4 pathway; also recorded: Induction of ATF pathway; no effect on cell cycle gene"}, {"measurement": "Outcome: Metabolites", "setting": "Metabolites", "value": "induced specific alterations in redox (decreased GSH), energy (decrease in ATP/AMP ratio), and TCA cycle intermediates (decreased isocitrate/aconitate) in tumor cells but not NHLF; also recorded: Decrease in total GSH levels; decrease in ATP/AMP"}, {"measurement": "eIF2α phosphorylation", "setting": "eIF2α phosphorylation", "value": "Increased eIF2α phosphorylation within 30 minutes"}, {"measurement": "maximum reduction of cellular GSH", "setting": "[2]", "value": "43-69%"}, {"measurement": "GSH % Max reduction", "setting": "BJAB [3]", "value": "69 ± 11", "unit": "%"}, {"measurement": "IC50", "setting": "BJAB [3]; Homo sapiens, read-out: GSH IC50 (Abs)", "value": "208 ± 80", "unit": "nM"}, {"measurement": "Apoptosis, 72 hr", "setting": "BJAB [4]", "value": "Yes"}, {"measurement": "Apoptosis, 72 hr", "setting": "HCT-116", "value": "No"}]}]}
